pIC50: −log10 of the molar value.
Columns and labels:
MC38 cells [1] = assay: Telomere dysfunction Induced Foci (TIF) and micronuclei assays in cells; format: cell-based, mouse
Experimental: Telomere dysfunction Induced Foci (TIF) and micronuclei assays. The TIF assay is based on the co-localization detection of DNA damage by an antibody against DNA damage response factors such as gamma-H2AX, 53BP1, and antibody against telomeric proteins or telomeres using telomere sequence-specific peptide nucleic acid (PNA) probe (Mender and Shay, 2015). Briefly, cells were seeded into 4-well chamber slides. Next day, cells were treated with 1 μM 6-thio-dG for 24 hrs (for TIF assay) or 1-3 μM 6-thio-dG for 48 hrs (for micronuclei assay). Slides were then rinsed twice with PBS and fixed in 4% formaldehyde (Thermo Fisher) in PBS for 10 mins. Then, cells were washed twice with PBS and permeabilized in 0.5% Triton X-100 in PBS for 10 min. Following permeabilization, cells were washed three times with PBS. Cells were blocked with 10% goat serum in 0.1% PBST (TritonX-100) for 1 hr. Gamma-H2AX (TIF assay, mouse, 1:1000) (Millipore) or lamin A/C (micronuclei assay, mouse, 1:500) (Santa Cruz) was diluted in blocking solution and incubated on cells for 2 hrs. Following three washes with PBST (1×PBS in 0.1% Triton) and 3 washes with PBS, cells were incubated with Alexaflour 568 conjugated goat anti-mouse (1:500) (Invitrogen) for 40 mins, then washed five times with 0.1% PBST. Cells were fixed in 4% formaldehyde in PBS for 20 mins at RT. The slides were sequentially dehydrated with 70%, 90%, 100% ethanol followed by denaturation with hybridization buffer containing FAM-conjugated telomere sequence (C-rich)-specific PNA probe, 70% formamide, 30% 2×SSC, 10% (w/v) MgCl2·6H2O (Fisher Sci), 0.25% (w/v) blocking reagent for nucleic acid hybridization and detection (Roche) for 7 mins at 80° C. on a heat block, followed by overnight incubation at RT. Slides were washed sequentially with 70% formamide (Ambion)/0.6×SSC (Invitrogen) (2×1 hr), 2×SSC (1×15 mins), PBS (1×5 mins) and sequentially dehydrated with 70%, 90%, 100% ethanol, then mounted with Vectashield mounting medium with DAPI (Vector Laboratories). […] TIFs were quantified using Image J.

MC38 cells [2] = assay: Colony formation assay; format: cell-based, mouse; conditions: 0.5 μM 6-thio-dG every three days for 13 days
Experimental: Colony formation assay. MC38 cells were seeded in three different concentrations on six well plates (1000-4000 cells/well) and treated with various drug concentrations every 3-4 days. Following 13 days treatment, cells were fixed and stained with 6% glutaraldehyde (Fisher Scientific) plus 0.5% crystal violet (Sigma) solution. After washing with tap water, cells were air-dried and images captured using a G-BOX (Syngene, model: G-BOX F3).

A375 tumor cells = assay: A375 tumor model in NSG-SGM3 and humanized NSG-SGM3 mice; format: in vivo, mouse
Experimental: FIGS. 13A-F (related to FIGS. 6A-E). (FIGS. 13A-C) 12 weeks after humanized mouse reconstitution, human CD45+ cells and CD3+ T cells in mouse peripheral blood were tested by flow cytometry. (FIG. 13D) Cell viability (IC50) of 6-thio-dG in A375 human melanoma cancer cells. Cells were treated with 6-thio-dG for 4 days. (FIG. 13E) NSG-SGM3 mice (n=5) were inoculated with 2×10^6 A375 tumor cells and treated with 6-thio-dG (3 mg/kg, day 7 and day 8) or anti-PD-L1 plus anti-CTLA-4 (200 μg i.p., day 10 and day 13) or the combination of 6-thio-dG plus anti-PD-L1 and anti-CTLA-4. Tumor growth was measured every 3 days. (FIG. 13F) Humanized NSG-SGM3 mice (n=5-7) were inoculated with 2×10^6 A375 tumor cells and treated with 6-thio-dG (3 mg/kg, day 13 and day 14) or anti-PD-L1 plus anti-CTLA-4 (200 μg i.p., day 16 and day 19) or the combination of 6-thio-dG plus anti-PD-L1 and anti-CTLA-4. Tumor growth was measured every 3 days. Data were shown as mean±SEM. P value was determined by two-tailed unpaired t test (FIGS. 13B and 13C, n.s. p>0.05) or two-way ANOVA (FIG. 13F).
Humanized mouse tumor models. Humanized mouse reconstitution was previously described (Qiao et al., 2019). Briefly, four-week-old NSG-SGM3 female mice were irradiated with 100 cGy (X-ray irradiation with X-RAD 320 irradiator) one day prior to human CD34+ cells transfer. […] Tumor volumes were measured twice a week. […]

cancer cells = conditions: depending on cell type, even including therapy resistant cancers; read-out: observed IC50 values; cited from earlier work
[3] = tested on: tumor-derived xenograft models; conditions: many tumor-derived xenograft models; cited from earlier work
[4] = tested on: A375 human melanoma cancer cells; assay: Cell viability assay (CellTiter 96), A375; format: cell-based; conditions: treated for 4 days
Experimental: (§1) Cell viability assay. For determination of IC50 with cell proliferation assays, murine and human cancer cell lines were screened with 6-thio-dG with a 2-fold dilution series in 8 different points in 96-well plates. Cells were plated 24 hrs prior to the addition of drug, incubated for 4-5 days, and assayed using CellTiter 96® Aqueous One Solution Cell Proliferation Assay according to the manufacturer's instructions (Promega). Cell number per well ranged from 1,000 to 10,000 cells per well inversely proportional to doubling times. Dose response curves were generated and IC50s calculated using Graphpad Prism. All samples were analyzed in triplicate and standard deviations are from 2-3 independent experiments.

MC38 cells [5] = assay: Cell viability assay (CellTiter 96), MC38; format: cell-based; conditions: Mus musculus, MC-38, 120 h; cells treated for 5 days; read-out: IC50 concentration, cell viability
Experimental: as §1

Compound: Nc1nc2c(ncn2[C@H]2C[C@H](O)[C@@H](CO)O2)c(=S)[nH]1 [6-thio-dG, 6-thio-2′-deoxyguanosine]
- interphase bridges between daughter cells during telophase (MC38 cells [1]): induced interphase bridges
- telomere stress by TIF assay (MC38 cells [1]; 1 μM 6-thio-dG for 24 hrs): induced telomere damages
- micronuclei (MC38 cells [1]; 1 μM 6-thio-dG, 48 hrs): induced micronuclei
- cells forming colonies (MC38 cells [2]): less than 50%
- tumor growth / tumor burden (A375 tumor cells; humanized NSG-SGM3 mice, 6-thio-dG 3 mg/kg day 13 and 14, anti-PD-L1 plus anti-CTLA-4 200 μg i.p. day 16 and 19): partially delayed tumor growth
- tumor growth (A375 tumor cells; immunocompromised NSG-SGM3 mice, 3 mg/kg, day 7 and day 8): did not observe any effect
- pIC50 (cancer cells): 5.54 to 6.15
- side effects in xenograft models [3]: minimal side effects
- tumor response in xenograft models [3]: rapid tumor shrinkage or growth arrest
- sensitivity in vitro (cell viability) [4]: sensitive
- pIC50 (MC38 cells [5]): 6.43

— US12097213B2, “Sequential treatment of cancers using 6-thio-dG, checkpoint inhibitors and radiation therapy” (The Board of Regents of the University of Texas System, priority 2020, dated 2024)
